The experiment deals with mitochondrial ATP synthase (DNP-stimulated Mg2+-ATPase), rat heart mitochondria (Rattus norvegicus, UniProt P10719+P15999). Description: phosphate release from ATP. The experiment is classed as biochemical.
Chain of mitochondrial ATP synthase (DNP-stimulated Mg2+-ATPase), rat heart mitochondria (P10719 47-529): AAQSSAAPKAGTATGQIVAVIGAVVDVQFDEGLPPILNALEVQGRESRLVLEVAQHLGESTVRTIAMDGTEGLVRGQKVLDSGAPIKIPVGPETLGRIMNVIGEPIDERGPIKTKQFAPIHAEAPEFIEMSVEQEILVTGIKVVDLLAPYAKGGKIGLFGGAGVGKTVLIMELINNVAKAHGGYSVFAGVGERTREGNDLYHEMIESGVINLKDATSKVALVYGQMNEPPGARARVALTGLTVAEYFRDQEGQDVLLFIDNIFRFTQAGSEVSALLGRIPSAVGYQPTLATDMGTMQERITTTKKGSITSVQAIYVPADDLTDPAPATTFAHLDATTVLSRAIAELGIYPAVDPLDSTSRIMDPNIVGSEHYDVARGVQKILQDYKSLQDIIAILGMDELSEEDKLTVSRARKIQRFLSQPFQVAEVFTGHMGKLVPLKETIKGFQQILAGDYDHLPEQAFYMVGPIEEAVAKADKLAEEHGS
Chain of mitochondrial ATP synthase (DNP-stimulated Mg2+-ATPase), rat heart mitochondria (P15999 44-553): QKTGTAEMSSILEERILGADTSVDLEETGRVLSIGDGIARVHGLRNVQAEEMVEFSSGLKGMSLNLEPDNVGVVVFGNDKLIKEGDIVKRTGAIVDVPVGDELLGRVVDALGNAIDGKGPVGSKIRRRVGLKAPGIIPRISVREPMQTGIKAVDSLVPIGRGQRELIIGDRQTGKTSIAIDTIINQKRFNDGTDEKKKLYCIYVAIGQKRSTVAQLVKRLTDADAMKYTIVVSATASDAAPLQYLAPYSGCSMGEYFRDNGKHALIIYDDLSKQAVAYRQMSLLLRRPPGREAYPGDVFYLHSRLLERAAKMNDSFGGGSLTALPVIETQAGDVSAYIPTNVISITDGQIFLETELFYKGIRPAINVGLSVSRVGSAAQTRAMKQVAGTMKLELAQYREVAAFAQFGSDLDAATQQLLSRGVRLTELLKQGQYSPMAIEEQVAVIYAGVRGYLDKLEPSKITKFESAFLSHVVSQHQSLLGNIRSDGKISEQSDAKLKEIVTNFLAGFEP
Chain of mitochondrial ATP synthase (DNP-stimulated Mg2+-ATPase), rat heart mitochondria (P35435 whole entry partner): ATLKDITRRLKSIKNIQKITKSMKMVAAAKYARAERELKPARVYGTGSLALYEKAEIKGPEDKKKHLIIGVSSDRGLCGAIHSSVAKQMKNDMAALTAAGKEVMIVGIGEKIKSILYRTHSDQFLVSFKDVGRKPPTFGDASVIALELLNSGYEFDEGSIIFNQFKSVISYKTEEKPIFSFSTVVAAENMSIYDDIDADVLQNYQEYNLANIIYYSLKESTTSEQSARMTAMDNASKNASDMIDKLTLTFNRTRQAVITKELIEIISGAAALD
Chain of mitochondrial ATP synthase (DNP-stimulated Mg2+-ATPase), rat heart mitochondria (P35434 23-168 partner): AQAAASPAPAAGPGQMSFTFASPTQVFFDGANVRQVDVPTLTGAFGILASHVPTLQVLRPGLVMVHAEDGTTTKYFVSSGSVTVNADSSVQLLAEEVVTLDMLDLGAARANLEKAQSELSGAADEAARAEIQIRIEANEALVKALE
Chain of mitochondrial ATP synthase (DNP-stimulated Mg2+-ATPase), rat heart mitochondria (P29418 2-51 partner): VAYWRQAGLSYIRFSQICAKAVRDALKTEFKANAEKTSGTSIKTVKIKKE
Chain of mitochondrial ATP synthase (DNP-stimulated Mg2+-ATPase), rat heart mitochondria (Q06647 24-213 partner): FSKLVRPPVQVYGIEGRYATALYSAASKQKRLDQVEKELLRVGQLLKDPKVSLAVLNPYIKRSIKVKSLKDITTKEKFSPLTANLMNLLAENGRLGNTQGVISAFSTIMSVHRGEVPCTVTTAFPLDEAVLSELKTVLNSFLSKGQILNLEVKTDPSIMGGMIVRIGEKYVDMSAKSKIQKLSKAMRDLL

Turning to `COC(=O)C1=C(C)NC(C)=C(C(=O)OC)C1c1ccccc1[N+](=O)[O-]` [nifedipine], the inhibition at 15 µM (read-out: % inhibition at 0.015 mmol/l) came out at 33%.

On to `C[C@H](CS)C(=O)N1CCC[C@H]1C(=O)O` [captopril], for which the inhibition at 450 µM (read-out: % inhibition at 0.45 mmol/l) was 97.4%.

The values are drawn from paper PMC4951600 (Iranian Journal of Basic Medical Sciences, 2016).
